Experimental data taken from patent US20240344145A1, “PHARMACOGENOMICS SCORE TO MAKE DECISIONS ON THERAPY AUGMENTATION IN AML” (University of Florida Research Foundation, Incorporated, priority 2021, published 2024).

System: ara-C metabolic pathway genes
Assay: Association of ara-C pathway SNP genotypes with MRD1, EFS and OS in AML02 (logistic regression and Cox models; also within LDAC and HDAC arms)
Parameters: species or system human
Details: within arm of AML02
Source text: Genomic DNA from patients enrolled in the multi-site St. Jude AML02 trial was genotyped for 155 SNPs in 16 genes of relevance to ara-C pharmacology using sequenom iPlex platform that uses MALDI-TOF based chemistry at University of Minnesota, Biomedical Genomics Center. SNPs were selected based on previously reported studies. For SNPs lacking literature on genetic variation, SNPs were selected to capture LD blocks (European and African ancestry) on a gene. Of 155 SNPs, 1 SNP was excluded due to low call rate (<90%), 47 SNPs were excluded due to minimum allele frequency of less than 5%, 11 SNPs were excluded due to high LD (r^2>0.9) with other SNPs; two SNPs were excluded because of deviation from Hardy-Weinberg equilibrium. Genotype for the COG-AAML0531 cohort for the selected SNPs was obtained using sequenom platform or TaqMan genotyping assays, and for a few SNPs was extracted from the data available on Illumina 2.5 Omni array. Genotype calls from multiple platforms were confirmed across multiple samples randomly collected from the cohort.
SNP genotype groups in three different modes of inheritance (additive, dominant, and recessive) were tested for association with MRD1 using logistic regression models. Odds ratio (OR) and 95% confidence interval (CI) were calculated for each test. SNPs with association P-value<0.05 were considered significant. Cox-proportional hazard models were used to evaluate association of genotype groups with EFS or OS. Hazard ratio (HR) and 95% CI were calculated for each test. p-value<0.05 was considered statistically significant. Given initial risk group assignments are well-established prognostic factors associated with outcome, outcome association analysis of SNPs with and without adjusting for risk group was also performed to identify SNPs that are associated with outcome independent of risk group.
SNPs with p<0.15 in risk-adjusted univariate evaluation with clinical endpoints (MRD1, EFS, and OS) were tested for all possible combinations with a maximum of three SNPs per model in multivariable logistic regression models for association with MRD1 and Cox-proportional hazard models for association with EFS and OS. Analysis for up to 3 SNP combinations was restricted due to computational challenges as increasing the maximum number of SNPs per model drastically increases the number of models as 1000 permutations were run for each model. Models were ordered according to their Bayesian Information Criterion (BIC) and weight in favor of each model. One thousand permutation tests were performed for each model to determine statistical significance. The six unique SNPs from the most significant models for EFS and MRD1 were included in the development of the ACS10 score as described in the results section.
The multicenter AML02 clinical trial randomly assigned subjects to receive low dose ara-C (LDAC: 100 mg/m^2; n=91 patients) or high dose ara-C(HDAC: 3 g/m^2; n=75 patients) in combination with daunorubicin and etoposide as the first course of chemotherapy as described above in patient cohort section. Thus, the association of SNPs with outcome within each arm separately was also explored (Table 5).

[1] = rs4742 (DCTD, WT T, VAR C), MOI R
[2] = rs5841 (NME4, WT C, VAR T), MOI D
[3] = rs324148 (SLC29A1, WT C, VAR T), MOI A
[4] = rs407983 (NME4, WT G, VAR C), MOI A
[5] = rs507964 (SLC29A1, WT C, VAR A), MOI R
[6] = rs580032 (CDA, WT T, VAR G), MOI D
[7] = rs602950 (CDA, WT T, VAR C), MOI A
[8] = rs747199 (SLC29A1, WT C, VAR G), MOI D
[9] = rs818196 (CDA, WT G, VAR C), MOI D
[10] = rs1048977 (CDA, WT C, VAR T), MOI D
[11] = rs1138729 (RRM2, WT A, VAR G), MOI D
[12] = rs2072671 (CDA, WT A, VAR C), MOI A
[13] = rs2396243 (SLC29A1, WT G, VAR A), MOI D
[14] = rs3088062 (CMPK1, WT T, VAR C), MOI A
[15] = rs3743162 (SLC28A1, WT C, VAR T), MOI D
[16] = rs3829540 (NME3, WT G, VAR A), MOI D
[17] = rs3925058 (CMPK1, WT T, VAR C), MOI D
[18] = rs4247411 (SLC28A1, WT C, VAR T), MOI D
[19] = rs4271567 (SLC28A1, WT T, VAR A), MOI R
[20] = rs4643786 (DCK, WT T, VAR C), MOI R

## Nc1ccn([C@@H]2O[C@H](CO)[C@@H](O)[C@@H]2O)c(=O)n1 [HDAC, cytarabine]
[1]
  EFS HR (95% CI): 1.53 (0.98-2.4)
  MRD1 OR (95% CI): 1.08 (0.49-2.38)
  OS HR (95% CI): 1.49 (0.91-2.46)
[2]
  EFS HR (95% CI): 0.86 (0.6-1.23)
  MRD1 OR (95% CI): 0.48 (0.28-0.81)
  OS HR (95% CI): 1.15 (0.74-1.81)
[3]
  EFS HR (95% CI): 0.88 (0.52-1.5)
  MRD1 OR (95% CI): 1.08 (0.55-2.1)
  OS HR (95% CI): 0.75 (0.39-1.46)
[4]
  EFS HR (95% CI): 1.1 (0.7-1.72)
  MRD1 OR (95% CI): 1.43 (0.76-2.67)
  OS HR (95% CI): 1.05 (0.62-1.8)
[5]
  EFS HR (95% CI): 1.71 (1.12-2.62)
  MRD1 OR (95% CI): 1.01 (0.51-2.01)
  OS HR (95% CI): 1.37 (0.8-2.36)
[6]
  EFS HR (95% CI): 0.45 (0.22-0.92)
  MRD1 OR (95% CI): 0.91 (0.49-1.66)
  OS HR (95% CI): 0.58 (0.28-1.19)
[7]
  EFS HR (95% CI): 1.25 (0.74-2.09)
  MRD1 OR (95% CI): 0.69 (0.32-1.48)
  OS HR (95% CI): 0.86 (0.44-1.69)
[8]
  EFS HR (95% CI): 0.97 (0.66-1.42)
  MRD1 OR (95% CI): 1.37 (0.82-2.29)
  OS HR (95% CI): 1.1 (0.72-1.71)
[9]
  EFS HR (95% CI): 0.66 (0.45-0.98)
  MRD1 OR (95% CI): 0.9 (0.56-1.47)
  OS HR (95% CI): 0.73 (0.47-1.14)
[10]
  EFS HR (95% CI): 0.9 (0.63-1.28)
  MRD1 OR (95% CI): 1.09 (0.67-1.78)
  OS HR (95% CI): 1.44 (0.7-2.98)
[11]
  EFS HR (95% CI): 1.14 (0.78-1.66)
  MRD1 OR (95% CI): 1.04 (0.61-1.77)
  OS HR (95% CI): 1.42 (0.93-2.17)
[12]
  EFS HR (95% CI): 1.18 (0.7-1.99)
  MRD1 OR (95% CI): 0.73 (0.34-1.56)
  OS HR (95% CI): 0.89 (0.46-1.75)
[13]
  EFS HR (95% CI): 0.94 (0.63-1.39)
  MRD1 OR (95% CI): 1.39 (0.84-2.31)
  OS HR (95% CI): 0.87 (0.54-1.4)
[14]
  EFS HR (95% CI): 1.41 (0.8-2.51)
  MRD1 OR (95% CI): 1.16 (0.48-2.81)
  OS HR (95% CI): 1.48 (0.75-2.94)
[15]
  EFS HR (95% CI): 1.65 (1.15-2.36)
  MRD1 OR (95% CI): 1.89 (1.15-3.11)
  OS HR (95% CI): 1.43 (0.94-2.18)
[16]
  EFS HR (95% CI): 0.71 (0.47-1.09)
  MRD1 OR (95% CI): 0.82 (0.49-1.37)
  OS HR (95% CI): 0.51 (0.27-0.93)
[17]
  EFS HR (95% CI): 0.81 (0.56-1.18)
  MRD1 OR (95% CI): 1.41 (0.79-2.53)
  OS HR (95% CI): 0.76 (0.49-1.18)
[18]
  EFS HR (95% CI): 1.69 (1.08-2.64)
  MRD1 OR (95% CI): 1.91 (1.08-3.37)
  OS HR (95% CI): 1.72 (1-2.95)
[19]
  EFS HR (95% CI): 0.52 (0.29-0.95)
  MRD1 OR (95% CI): 0.66 (0.35-1.23)
  OS HR (95% CI): 0.54 (0.26-1.11)
[20]
  EFS HR (95% CI): 1.15 (0.63-2.09)
  MRD1 OR (95% CI): 0.87 (0.36-2.12)
  OS HR (95% CI): 1.38 (0.75-2.56)
